The values below are quoted from earlier work in patent publication US20070134339A1, “ZONISAMIDE AND NSAID NANOPARTICULATE FORMULATIONS” (Elan Pharma International, Limited, priority 2005, published 2007).

Values after ≈ are worked out from the molar mass of the structure shown.

Experiment in series [1]: not given
This is another data set of the same source.

Experiment in series [2]: not given
The source holds these as a separate data set.

`NS(=O)(=O)Cc1noc2ccccc12` [Zonisamide, 1,2-benzisoxazole-3-methanesulfonamide]: the pKa is 10.2. The “solubility in 0.1 N HCl” value in series [1] (0.1 N HCl) is 500 µg/mL (≈ 2.36 mM). Moreover, the solubility in water in series [1] (water) is 800 µg/mL (≈ 3.77 mM). In addition, the peak plasma concentrations in series [2] (200-400 mg oral dose, normal volunteers) was 2 to 5 µg/mL. Further, the “time at which peak plasma concentrations occur” value in series [2] (200-400 mg oral dose, normal volunteers, without food) is 2 to 6 h. In series [2] (oral, in the presence of food), the “effect of food on bioavailability” value is on record as “no effect” and the “time to maximum concentration” value is 4 to 6 h.

By pKa is commonly meant the pH at which an ionisable group is half protonated.
